Measurements: patent US12357632B2, “Methods of treating cholangiocarcinoma” (QED Therapeutics, Inc., priority 2019, dated 2025)

How the values were obtained:
[1] = system: cholangiocarcinoma; conditions: ABC-02 trial (Valle et al., 2010); cited from earlier work
[2] = system: advanced or metastatic cholangiocarcinoma with FGFR genetic alterations; assay: Phase II study of oral BGJ398 in advanced or metastatic cholangiocarcinoma, Patient 5010004 (RECIST v1.1); type: in vivo, human; conditions: Patient 5010004, oral erdafitinib prior to study treatment
Method: This is a multi-center, open label, single arm phase II study evaluating BGJ398 anti-tumor activity in advanced or metastatic cholangiocarcinoma patients with FGFR genetic alterations. 125 mg of oral, monotherapy BGJ398 is administered once daily for the first 3 weeks (21 days) of each 28-day cycle. The starting dose of 125 mg may be reduced to 100 mg, 75 mg, or 50 mg. The treatment period begins on Cycle 1, Day 1, and continues until disease progression, unacceptable toxicity, withdrawal of informed consent, or death. Patients are evaluated for tumor response radiographically every 8 weeks until disease progression or discontinuation from study using RECIST v1.1 criteria.
Adult patients with histologically or cytologically confirmed advanced or metastatic cholangiocarcinoma with FGFR2 gene fusions or translocations or other FGFR genetic alteration who have evidence of radiologic progression following a cisplatin- and gemcitabine-containing regimen for advanced disease or a gemcitabine-containing regimen for those who are considered intolerant to cisplatin are enrolled. Up to approximately 160 adult patients over age 18, both male and female are enrolled. Three cohorts of patients comprise the study population: • Cohort 1: ˜120 patients, 108 with FGFR2 gene fusions or translocations and 12 with other FGFR genetic alterations. • Cohort 2: ˜20 patients with FGFR genetic alterations other than FGFR2 gene fusions or translocations. • Cohort 3: Up to ˜20 patients with FGFR2 gene fusions or translocations who have received a prior FGFR inhibitor. Main Inclusion Criteria
Tumor response according to RECIST v1.1, and survival.
During treatment with infigratinib, the patient's response was determined by follow-up assessments conducted by a local investigator per RECIST v1.1.

[3] = Tolerability (body weight, clinical observations) in Vex-MR086M1 xenograft study; type: in vivo, Mouse (Mus musculus)
Method: (§1) All animals were weighed at the same time as tumor size measurement. A Relative Body Weight loss (RBW loss) was considered as adverse effect of the treatment.
(§2) Mice were observed every day for physical appearance, behavior and clinical changes.
(§3) Relative Body Weight (RBW) is calculated for each measurement by dividing the body weight by the body weight at the start of treatment.
(§4) Individual Body weight loss percent (% BWL)=100−(BWX/BW0×100), where BWX is the BW at any day during the treatment and BW0 is the BW on the day of inclusion.
(§5) Mean Body weight loss percent (% BWL)=100−(mean BWX/mean BW0×100), where BWX is the mean BW at any day during the treatment and BW0 is the mean BW on the day of inclusion.

[4] = Tolerability (body weight, clinical observations) in UREx-MR2057PD-AR xenograft study; type: in vivo, Mouse (Mus musculus)
Method: as §1, §2, §3, §4, §5

Row | SMILES | median overall survival [1] | median progression-free survival [1] | best response [2] | time to discontinuation due to radiological disease progression [2] | clinical observations ([3]; erdafitinib 15 mg/kg PO qdx21) | mean body weight loss ([3]; erdafitinib 15 mg/kg PO qdx21) | tolerability ([3]; erdafitinib 15 mg/kg PO qdx21) | maximum individual body weight loss ([3]; erdafitinib 15 mg/kg PO qdx21, on D17) | clinical observations ([4]; erdafitinib 15 mg/kg PO qdx21) | maximum mean body weight loss ([4]; erdafitinib 15 mg/kg PO qdx21) | tolerability ([4]; erdafitinib 15 mg/kg PO qdx21) | maximum individual body weight loss ([4]; erdafitinib 15 mg/kg PO qdx21, on D3)
1 | Nc1ccn([C@@H]2O[C@H](CO)[C@@H](O)C2(F)F)c(=O)n1 [gemcitabine] | 8.1 months | 5.0 months |  |  |  |  |  |  |  |  |  | 
2 | COc1cc(OC)cc(N(CCNC(C)C)c2ccc3ncc(-c4cnn(C)c4)nc3c2)c1 [Erdafitinib, reference compound] |  |  | progressive disease | approximately 2 months | No relevant observable signs were reported | no mean body weight loss | well tolerated except for 1 mouse | 10.6% | No relevant observable signs were reported | no maximum mean body weight loss | well tolerated | 4.9%
